The text below walks through data of ChEMBL document CHEMBL1132030, “Photoactivatable peptides based on BMS-197525: a potent antagonist of the human thrombin receptor (PAR-1)” (Bioorg Med Chem Lett, 1999).

Where a SMILES comes first, the peptide text is derived from it. [ ]: non-standard residue; d: D form. The star is where a group is joined. Phe(4-guanidino) = N=C(N)Nc1ccc(C[C@H](N)C(=O)O)cc1; Bpa = N[C@@H](Cc1ccc(C(=O)c2ccccc2)cc1)C(=O)O; Phe(4-F) = N[C@@H](Cc1ccc(F)cc1)C(=O)O; NBD = O=[N+]([O-])c1ccc(*)c2nonc12; Orn = NCCC[C@H](N)C(=O)O; X2 = O=C(/C=C/c1ccccc1)*

For the assay, the target named is T1, Proteinase-activated receptor 1 (Homo sapiens, UniProt P25116).
T1 sequence (P25116 whole entry): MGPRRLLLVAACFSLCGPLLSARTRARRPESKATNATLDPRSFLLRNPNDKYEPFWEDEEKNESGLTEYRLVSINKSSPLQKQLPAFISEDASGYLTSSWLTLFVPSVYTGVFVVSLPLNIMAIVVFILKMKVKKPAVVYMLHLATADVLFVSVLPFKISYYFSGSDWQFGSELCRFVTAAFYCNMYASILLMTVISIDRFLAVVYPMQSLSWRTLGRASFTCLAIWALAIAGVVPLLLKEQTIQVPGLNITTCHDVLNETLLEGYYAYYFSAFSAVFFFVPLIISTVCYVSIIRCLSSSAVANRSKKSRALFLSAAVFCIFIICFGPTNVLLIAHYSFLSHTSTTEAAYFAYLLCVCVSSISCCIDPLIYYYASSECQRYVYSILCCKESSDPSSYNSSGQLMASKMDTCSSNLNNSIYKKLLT
As to the kind of experiment: Human Thrombin receptor 1 (PAR-1) antagonistic ability to inhibit SFLLRN-NH2 (2.7 uM)-induced platelet aggregation; Not active at 110 uM concentration. The assay is classed as functional.

For `CC(C)C[C@H](NC(=O)[C@H](Cc1ccc(NC(=N)N)cc1)NC(=O)[C@H](Cc1ccc(F)cc1)NC(=O)/C=C/c1ccccc1)C(=O)N[C@@H](Cc1ccc(C(=O)c2ccccc2)cc1)C(=O)N[C@@H](CCCNc1ccc([N+](=O)[O-])c2nonc12)C(=O)O` (X2-[Phe(4-F)][Phe(4-guanidino)]L[Bpa][Orn](NBD)-OH), the IC50 entry was “Not Active”.
